These results are taken from PMC10439310 (Nature microbiology, 2022).

Assay [1] addresses T1, BsIMPDH (Bacillus subtilis, UniProt P21879). As to conditions: for binding to BsIMPDH (in words): ITC, 25 °C, 25 μM BsIMPDH.
The test system of assay [2] is BsIMPDH-ΔCBS. As to conditions: presence of IMP and NAD+.
Another assay relates to A. gossypii IMPDH. To be noted: cited from earlier work.
Assay [3] has as its system BsIMPDH-ΔCBS. To be noted: 10 μM Ap4A.
Another assay has as its system E. coli IMPDH. To be noted: cited from earlier work.
The target of assay [4] is T1, BsIMPDH. Put plainly: biochemical.
For assay [5], the target named is T1, BsIMPDH. Nature of the assay: Mass photometry of BsIMPDH tetramer/octamer state. As to conditions: EC50 of BsIMPDH octamer formation, absence of substrates, 100 nM BsIMPDH.
The target in assay [6] is T1, BsIMPDH. Nature of the assay: biochemical. This is another data set of the same source.
Assay [7] concerns the target T1, BsIMPDH. To be noted: 50 μM BsIMPDH, 5 mM ligand, 25 °C.
The mark [8] stands for this setting: dinucleotide 10 μM, NAD+ constant, IMP variable.

Usually Kd stands for a measure of binding affinity in units of concentration. In general, EC50 refers to the concentration at which the effect is half-maximal. Lower therefore signals a more potent agent. One may read the Ki as a measure of affinity in units of concentration, obtained from inhibition or displacement.

T1 sequence (P21879 whole entry): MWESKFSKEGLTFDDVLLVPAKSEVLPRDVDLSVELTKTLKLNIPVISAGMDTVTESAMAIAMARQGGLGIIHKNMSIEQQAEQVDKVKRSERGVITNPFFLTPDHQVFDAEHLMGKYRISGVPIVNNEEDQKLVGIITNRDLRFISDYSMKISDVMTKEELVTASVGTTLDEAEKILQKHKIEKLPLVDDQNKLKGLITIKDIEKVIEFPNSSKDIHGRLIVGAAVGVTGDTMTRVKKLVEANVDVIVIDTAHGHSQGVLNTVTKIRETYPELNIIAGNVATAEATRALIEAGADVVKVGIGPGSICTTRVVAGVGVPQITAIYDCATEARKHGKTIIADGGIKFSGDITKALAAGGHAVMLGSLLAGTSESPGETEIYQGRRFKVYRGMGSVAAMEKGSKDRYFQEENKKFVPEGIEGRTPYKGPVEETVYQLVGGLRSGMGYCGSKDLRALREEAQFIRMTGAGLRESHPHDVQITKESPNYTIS

For `Nc1nc2c(ncn2[C@@H]2O[C@H](COP(=O)(O)OP(=O)(O)OP(=O)(O)OC[C@H]3O[C@@H](n4cnc5c(N)ncnc54)[C@H](O)[C@@H]3O)[C@@H](O)[C@H]2O)c(=O)[nH]1` [Ap3G], at BsIMPDH [1], the “binding to BsIMPDH (in words)” value is “No binding”.
Turning to `Nc1ncnc2c1ncn2[C@@H]1O[C@H](COP(=O)(O)OP(=O)(O)OP(=O)(O)OP(=O)(O)OC[C@H]2O[C@@H](n3cnc4c(N)ncnc43)[C@H](O)[C@@H]2O)[C@@H](O)[C@H]1O` [Ap4A, diadenosine 5’,5’’’-P1,P4-tetraphosphate], in the assay on BsIMPDH-ΔCBS [2], the “Ap4A-dependent tetramer-to-octamer equilibrium (in words)” value is “insensitive to Ap4A-dependent regulation”. For the same compound, the “difference in affinity between Ap4A and ATP” value at BsIMPDH [1] (from ITC Kd values) was “approximately 700 fold”. In addition, the “binding (in words)” value with A. gossypii IMPDH is listed as “only with low affinity”. In addition, in the assay with BsIMPDH-ΔCBS [3], the “Ap4A-dependent regulation of enzymatic activity (in words)” value is “insensitive to Ap4A-dependent regulation”. In addition, the “affinity relative to ATP” value with E. coli IMPDH is reported as “five-fold higher affinity than ATP”. The compound also came in with an equilibrium dissociation constant (Kd) at BsIMPDH [4] of 7.4 ± 2.1 µM. The same compound displayed a 50% effective concentration (EC50) on BsIMPDH [5] of 90 µM. Also, on BsIMPDH [6], the Ki was found to be 15.8 µM. Further, the “effect on BsIMPDH activity (in words)” value on BsIMPDH [6] (Ap4A 1-100 μM) is “potently reduced BsIMPDH activity”. Also, at BsIMPDH [7], the “effect on conformational flexibility of CBS domains (HDX-MS, in words)” value is listed as “restrict the conformational flexibility of the CBS domains”.
For the compound `Nc1nc2c(ncn2[C@@H]2O[C@H](COP(=O)(O)OP(=O)(O)OP(=O)(O)OP(=O)(O)OC[C@H]3O[C@@H](n4cnc5c(N)ncnc54)[C@@H](O)C3O)[C@H](O)C2O)c(=O)[nH]1` (some centres unmarked) [Ap4G], the “binding to BsIMPDH (in words)” value at BsIMPDH [1] is “No binding”.
For `Nc1ncnc2c1ncn2[C@@H]1O[C@H](COP(=O)(O)OP(=O)(O)OP(=O)(O)OP(=O)(O)OP(=O)(O)OC[C@H]2O[C@@H](n3cnc4c(N)ncnc43)[C@H](O)[C@@H]2O)[C@@H](O)[C@H]1O` [Ap5A], on BsIMPDH [6] (setting [8]), the “effect on BsIMPDH activity (in words)” value is reported as “resulted in BsIMPDH inhibition”.
For the compound `Nc1nc2c(ncn2[C@@H]2O[C@H](COP(=O)(O)OP(=O)(O)OP(=O)(O)OP(=O)(O)OP(=O)(O)OC[C@H]3O[C@@H](n4cnc5c(N)ncnc54)[C@H](O)[C@@H]3O)[C@@H](O)[C@H]2O)c(=O)[nH]1` [Ap5G], the “binding to BsIMPDH (in words)” value on BsIMPDH [1] is given as “No binding”. For the same compound, the “binding (in words)” value in the assay with A. gossypii IMPDH is reported as “well”.
As for `Nc1ncnc2c1ncn2[C@@H]1O[C@H](COP(=O)(O)OP(=O)(O)OP(=O)(O)OP(=O)(O)OP(=O)(O)OP(=O)(O)OC[C@H]2O[C@@H](n3cnc4c(N)ncnc43)[C@H](O)[C@@H]2O)[C@@H](O)[C@H]1O` [Ap6A], the “effect on BsIMPDH activity (in words)” value on BsIMPDH [6] (setting [8]) is “resulted in BsIMPDH inhibition”.
`Nc1nc2c(ncn2[C@@H]2O[C@H](COP(=O)(O)OP(=O)(O)O)[C@@H](O)[C@H]2O)c(=O)[nH]1` [GDP, guanosine-5’-mono-, di-, triphosphate]: the “binding (in words)” value in the assay with A. gossypii IMPDH is recorded as “well”.
